The source of these data is patent US20130059096A1, “METHODS AND COATINGS FOR TREATING BIOFILMS” (President and Fellows of Harvard College, priority 2010, published 2013).

In test [1] the test system is Bacillus subtilis NCIB3610. The test is described as follows: Pellicle (biofilm) formation in liquid biofilm-inducing medium. Particulars: for Biofilm-inhibition assay for B. subtilis: summary statement, concentration not given; for minimum concentration (MIC for Minimal Inhibitory Concentration) needed to prevent biofilm formation: FIG. 2B, complete inhibition of pellicle formation; for Inhibition of biofilm formation (FIG. 5): MSgg medium. The test is classed as cell-based. As to the method: (§1) Colony and pellicle formation. For colony formation on solid medium, cells were first grown to exponential growth phase in LB broth and 3 μl of culture were spotted onto solid MSgg medium containing 1.5% Bacto agar. The plates were incubated at 23° C. For pellicle formation in liquid medium, cells were grown to exponential phase and 6 μl of culture were mixed with 6 ml of medium in a 12-well plate (VWR). Plates were incubated at 23° C. Images of colonies and pellicles were taken using a SPOT camera (Diagnostic Instruments, USA).
Preparing conditioned medium. Cells were grown in LB medium to exponential phase. 0.1 ml of culture was added to 100 ml of MSgg medium and grown without shaking in a 500 ml beaker at 23° C. Next, pellicles and conditioned medium was collected by centrifugation at 8,000 rpm for 15 min. The conditioned medium (supernatant fluid) was removed and filtered through a 0.22 μm filter. The filtrates were stored at 4° C. For further purification the biofilm-inhibiting activity was fractionated on a C-18 Sep Pak cartridge using stepwise elution of 0% to 100% methanol with steps of 5%.
To investigate whether mature biofilms produce a factor that triggers biofilm disassembly, the effect of concentrated and partially purified extracts of conditioned medium on pellicle formation when added to fresh medium was assayed. To this end, conditioned medium from an eight-day-old culture was applied to a C18 Sep Pak column. Concentrated eluate from the column was then added to a freshly inoculated culture. […] Further purification of the factor was achieved by eluting the cartridge in step-wise fashion with increasing concentrations of methanol.
Next, the minimum concentration (MIC for Minimal Inhibitory Concentration) needed to prevent biofilm formation was determined.

The test system of test [2] is S. aureus (strain SCO1). The test is described as follows: Biofilm formation on polystyrene, crystal violet staining. It is filed as cell-based, Staphylococcus aureus. Conditions: Staphylococcus aureus, read-out: % Inhibition relative to control (0%, <50%, 50-90%, >90%). Here is the method:
Crystal violet staining Crystal violet staining was done as described previously (O'Toole et al., Mol. […] Wells were stained with 500 μl of 1.0% Crystal-violet dye, rinsed twice with 2 ml double-distilled water and thoroughly dried.
The effect of D-amino acids on biofilm formation by other bacteria was examined. The pathogenic bacterium Staphylococcus aureus forms biofilms on plastic surfaces (Otto, Curr. Top. Microbiol. Immunol. 322:207 (2008)), which can be detected by washing away unbound cells and staining the bound cells with crystal violet. […] Additionally added to the wells were no amino acids (untreated), D-tyrosine (50 μM) or the D-amino acid mixture ([…] each). Cells bound to the polystyrene were visualized by washing away unbound cells and then staining with crystal violet.
For experiments reported in Table 1, the organism/strain was S.a. Harvard SCO1, the culture medium was TSB and the cell inoculation was at 2×10^9 cfu. For experiments reported in Table 2, the organism/strain was […], the culture medium was M63 and the cell inoculation was at 1.5×10^9 cfu. Biofilm was visualized using the crystal violet method. The data is shown below in Tables 1 and 2:
For experiments reported in Tables 3 and 4, the organism/strain was S.a. Harvard SCO1, the culture medium was TSB and the cell inoculation was at 2×10^9 cfu. Biofilm was visualized using the crystal violet method.

Test [3] deals with Bacillus subtilis NCIB3610. The test is described as follows: Colony biofilm formation on solid MSgg medium. Conditions: 8.5 mM, 4 days. The test is classed as cell-based. As to the method:
as §1

In test [4] the test system is matrix operons eps and yqxM. The test is described as follows: Expression of PyqxM-lacZ and PepsA-lacZ (β-galactosidase activity). Conditions: 8.5 mM, strains FC122 and FC5, MSgg, shaking. The test is classed as cell-based, Bacillus subtilis. Here is the method:
Assays of β-galactosidase activity. Cells were cultured in MSgg medium at 37° C. in a water bath with shaking 1 ml of culture was collected at each time point. β-galactosidase activity was determined as described previously (Chai et al., Mol. Microbiol. 67:254 (2008)).

Test [5] relates to Bacillus subtilis. The test is described as follows: Cell growth in MSgg medium with shaking. It is filed as cell-based. Particulars: 8.5 mM.
For test [6], the system named is Pseudomonas aeruginosa PA14. Kind of test: Biofilm formation on polystyrene, crystal violet staining. The test is classed as cell-based. Conditions: Pseudomonas aeruginosa, read-out: % Inhibition relative to control (0%, <50%, 50-90%, >90%). Here is the method:
Crystal violet staining Crystal violet staining was done as described previously (O'Toole et al., Mol. Microbiol. 30:295 (1998)) except that the cells were grown in 6-well plates. Wells were stained with 500 μl of 1.0% Crystal-violet dye, rinsed twice with 2 ml double-distilled water and thoroughly dried.
P. aeruginosa strain […] was grown in 12-well polystyrene plates for 48 hours at 30° C. in M63 medium containing glycerol (0.2%) and Casamino acids (20 μg/ml). Additionally added to the wells were no amino acids (untreated), D-tyrosine or the D-amino acid equimolar mixture. Cells bound to the polystyrene were visualized by washing away unbound cells and then staining with crystal violet. Wells were stained with 500 μl of 1.0% Crystal-violet dye, rinsed twice with 2 ml double-distilled water and thoroughly dried.
For experiments reported in Table 1, the organism/strain was S.a. Harvard SCO1, the culture medium was TSB and the cell inoculation was at 2×10^9 cfu. For experiments reported in Table 2, the organism/strain was […], the culture medium was M63 and the cell inoculation was at 1.5×10^9 cfu. Biofilm was visualized using the crystal violet method.

Test [7] has as its system P.a. Harvard PA14. Kind of test: Biofilm (colony architecture) formation on defined M63 medium. It is filed as cell-based, Pseudomonas aeruginosa. Particulars: 500 μM. The text has this: Similarly to Bacillus subtilis, Pseudomonas aeruginosa forms a complex architecture on defined medium. These complex structures require the proper formation and assembly of the extra-cellular matrix. […] For these experiments, the organism/strain was P.a. Harvard PA14, the culture medium was M63 and the cell inoculation was at 1.5×10^9 cfu.

In test [8] the test system is Pseudomonas aeruginosa. The test is described as follows: Attached single cells in well plate, Syto-9 staining. It is filed as cell-based. Particulars: Pseudomonas aeruginosa, 12 h, read-out: % Inhibition relative to control (0%, <50%, 50-90%, >90%). Here is the method: An alternative method to observe biofilm formation on a 6 well plate with or without D-amino acids and using Syto-9 staining was as follows: Pseudomonas aeruginosa biofilms were washed twice with PBS and then fixed for at least an hour in 5% Glutaraldehyde in PBS. The fixed biofilms were then rinsed once again with PBS and soaked in 0.1% v/v Triton X-100 in PBS (PBST) for 15 minutes. The solution was exchanged with 0.1 nM […] (Invitrogen) in cold PBST and gently rocked in the dark for at least 15 minutes. Fluorescence images of the biofilms were captured with a Leica DMRX compound microscope using a Xe lamp and a K3 Leica filtercube. […] The amount of attached single cells was quantified using image J. The decrease in the amount of cells attached to the epoxy surfaces soaked with D-aa compared with the L-aa control was substantially more.

Where [9] appears, read: Table 1, 100 nM, 24 h/37° C., polystyrene, TSB.
Where [10] appears, read: Table 1, 10 μM, 24 h/37° C., polystyrene, TSB.
[11] abbreviates: Table 1, 100 μM, 24 h/37° C., polystyrene, TSB.
Setting [12] is: Table 1, 500 μM, 24 h/37° C., polystyrene, TSB.
The mark [13] stands for this setting: PA14, Table 2, 100 nM, 48 h/30° C., polystyrene, M63.
[14] abbreviates: Table 3, 10 μM, 24 h/37° C., polystyrene, TSB.
The mark [15] stands for this setting: Table 3, 100 μM, 24 h/37° C., polystyrene, TSB.
The mark [16] stands for this setting: Table 3, 500 μM, 24 h/37° C., polystyrene, TSB.

Structures are written as SMILES. Where two headings read alike, the source gives them in different places. Where only a bound is given, the exact number is not on record here.

`C[C@@H](N)C(=O)O` [D-alanine]: the “Biofilm-inhibition assay for B. subtilis” value in test [1] is “not effective”.
Regarding `CC(C)C[C@@H](N)C(=O)O` [D-leucine], the inhibition at 0.1 µM in test [2] (setting [9]) and in test [6] (setting [13]) was 0% each time. For the same compound, the inhibition at 10 µM in test [2] (setting [10]) came to 0%; in test [6] (PA14, Table 2, 10 μM, 48 h/30° C., polystyrene, M63), 0%. For the same compound, the inhibition at 100 µM in test [2] (setting [11]) was 0%; in test [6] (PA14, Table 2, 100 μM, 48 h/30° C., polystyrene, M63) it was 0%. For the same compound, the inhibition at 500 µM in test [2] (setting [12]) was 0%; in test [6] (PA14, Table 2, 500 μM, 48 h/30° C., polystyrene, M63), 0%. Further, the “Biofilm formation on solid MSgg medium (FIG. 6)” value in test [3] was “inhibited biofilm formation”. In test [4], the “yqxM and eps expression (FIG. 9A, 9B)” value is given as “substantially the same as the untreated sample”. The “Cell growth (FIG. 8)” value in test [5] is listed as “substantially the same as the untreated sample”. For the same compound, the “Effect on pellicle formation (FIG. 2A)” value in test [1] (8.5 mM, freshly inoculated culture, biofilm-inducing medium, 3 days) is listed as “significant inhibition of biofilm growth”. Besides, in test [1], the “minimum concentration (MIC for Minimal Inhibitory Concentration) needed to prevent biofilm formation” value is recorded as “around 1 mM”. Also, the “Biofilm-inhibition assay for B. subtilis” value in test [1] is listed as “significant inhibition of biofilm growth”.
With `CSCC[C@@H](N)C(=O)O` [D-methionine], the inhibition at 0.1 µM in test [2] (setting [9]) was determined as 0%. Further, the inhibition at 10 µM in test [2] (setting [10]) came out at 0%. For the same compound, the inhibition at 100 µM in test [2] (setting [11]) was found to be 0%. Also, the inhibition at 500 µM in test [2] (setting [12]) is 0%. Further, the “Inhibition of biofilm formation (FIG. 5)” value in test [1] (2 mM, 3 days) is reported as “active in inhibiting biofilm formation”. For the same compound, in test [1], the “minimum concentration (MIC for Minimal Inhibitory Concentration) needed to prevent biofilm formation” value is given as “around 1 mM” and the “Biofilm-inhibition assay for B. subtilis” value is listed as “significant inhibition of biofilm growth”. The inhibition at 0.1 µM in test [6] (setting [13]) is 0%.
For the compound `N[C@H](Cc1ccccc1)C(=O)O` [D-phenylalanine], in test [2] (setting [14]), the inhibition at 10 µM is under 50%. Besides, the inhibition at 100 µM in test [2] (setting [15]) is under 50%. In addition, the inhibition at 500 µM in test [2] (setting [16]) was over 90%. The “Biofilm-inhibition assay for B. subtilis” value in test [1] is on record as “not effective”.
In the case of `O=C(O)[C@H]1CCCN1` [D-proline], the inhibition at 10 µM in test [2] (setting [14]) was under 50%. The inhibition at 100 µM in test [2] (setting [15]) is under 50%. The inhibition at 500 µM in test [2] (setting [16]) is over 90%. Further, the inhibition at 1000 µM in test [2] (Table 3, 1 mM, 24 h/37° C., polystyrene, TSB) is over 90%.
In the case of `N[C@H](Cc1c[nH]c2ccccc12)C(=O)O` [D-tryptophan], the “Biofilm formation on defined medium (FIG. 20)” value (from here on “Biofilm formation … (FIG. 20)”) in test [7] is listed as “inhibited biofilm formation”. In addition, in test [2] (24 h), the inhibition at 0.1 µM came to 0%, the inhibition at 10 µM worked out at 0%, the inhibition at 100 µM is under 50% and the inhibition at 500 µM was under 50%. The “Inhibition of biofilm formation (FIG. 5)” value in test [1] (0.5 mM, 3 days) is “active in inhibiting biofilm formation”. For the same compound, in test [1], the “minimum concentration (MIC for Minimal Inhibitory Concentration) needed to prevent biofilm formation” value is recorded as “around 1 mM” and the “Biofilm-inhibition assay for B. subtilis” value is “significant inhibition of biofilm growth”. Further, in test [6] (PA14, 48 h), the inhibition at 0.1 µM was 0%, the inhibition at 10 µM is under 50%, the inhibition at 100 µM is 50 to 90% and the inhibition at 500 µM lay in the range of 50 to 90%.
Regarding `CSCC[C@H](N)C(=O)O` [L-methionine, reference compound], the “Inhibition of biofilm formation (FIG. 5)” value in test [1] (5 mM, 3 days) was “Only the D-amino acids were active”.
On to `N[C@@H](Cc1c[nH]c2ccccc12)C(=O)O` [L-tryptophan, reference compound], for which the “Biofilm formation … (FIG. 20)” value in test [7] is “did not”. The “Inhibition of biofilm formation (FIG. 5)” value in test [1] (5 mM, 3 days) is given as “Only the D-amino acids were active”.
Take `N[C@@H](Cc1ccc(O)cc1)C(=O)O` [L-tyrosine, reference compound]: the “Biofilm formation … (FIG. 20)” value in test [7] is “did not”. Besides, in test [8], the inhibition at 500 µM was found to be 0%.
